Patent publication US7238701B2, “Substituted tetrahydrobenzothienopyrimidinamine compounds useful for treating hyper-proliferative disorders” (Bayer Pharmaceuticals Corporation, priority 2003, dated 2007)
pIC50: −log10 of the molar value.

How the values were obtained:
[1] = tested on: BT474 (human breast carcinoma); assay: In vitro tumor cell proliferation assay (Cell Titer-Glo luminescent cell viability), BT474 cells; format: cell-based; settings: BT-474, 72 hours drug exposure, 10% Fetal Bovine Serum, ATP luminescence readout, read-out: IC50 (50% inhibition of cell proliferation)
Text: (§1) In vitro Tumor Cell Proliferation Assay
(§2) The tumor cell proliferation assay used to test the compounds of the present invention involves a readout called Cell Titer-Glow® Luminescent Cell Viability Assay developed by Promega (Cunningham, B A “A Growing Issue: Cell Proliferation Assays, Modern kits ease quantification of cell growth” The Scientist 2001, 15(13), 26, and Crouch, S P et al., “The use of ATP bioluminescence as a measure of cell proliferation and cytotoxicity” Journal of Immunological Methods 1993, 160, 81–88), that measures inhibition of cell proliferation. Generation of a luminescent signal corresponds to the amount of ATP present, which is directly proportional to the number of metabolically active (proliferating) cells.
(§3) A431cells (human epidermoid carcinoma, ATCC # HTB-20) and BT474 (human breast carcinoma, ATCC # CRL-1555) were plated at a density of 2.5×10^3 cells/well in 96 well black-clear bottom tissue culture plates in RPMI media with 10% Fetal Bovine Serum and incubated at 37° C. Twenty-four hours later, test compounds are added at a final concentration range from as high 100 μM to as low 64 pM depend on the activities of the tested compounds in serial dilutions at a final DMSO concentration of 0.1%. Cells were incubated for 72 hours at 37° C. in complete growth media after addition of the test compound. After 72 hours of drug exposure, the plates were equilibrated to room temperature for approximately 30 min. Then, using a Promega Cell Titer Glo Luminescent® assay kit, lysis buffer containing 100 microliters of the enzyme luciferase and its substrate, luciferin mixture, was added to each well. The plates were mixed for 2 min on orbital shaker to ensure cell lysis and incubated for 10 min at room temperature to stabilize luminescence signal. The samples were read on VICTOR 2 using Luminescence protocol, and analyzed with Analyze5 software to generate IC50 values.

[2] = tested on: A431cells (human epidermoid carcinoma); assay: In vitro tumor cell proliferation assay (Cell Titer-Glo luminescent cell viability), A431 cells; format: cell-based; settings: A-431, 72 h, 72 hours drug exposure, 10% Fetal Bovine Serum, ATP luminescence readout, read-out: IC50 (50% inhibition of cell proliferation)
Text: as §1, §2, §3

Compound | pIC50 [1] | pIC50 [2]
CS(=O)(=O)CCNCCC1CCc2c(sc3ncnc(Nc4ccc(F)c(Cl)c4)c23)C1 (stereo not shown) [Example 97, N-(3-chloro-4-fluorophenyl)-7-(2-{[(2-methylsulfonyl)ethyl]amino}ethyl)-5,6,7,8-tetrahydro[1]benzothieno[2,3-d]pyrimidin-4-amine] | > 5.30 | > 5.30
COCCNC(=O)C1CCc2c(sc3ncnc(Nc4ccc(F)c(Cl)c4)c23)C1 (stereo not shown) [Example 16, 4-[(3-chloro-4-fluorophenyl)amino]-N-(2-methoxyethyl)-5,6,7,8-tetrahydro[1]benzothieno[2,3-d]pyrimidine-7-carboxamide] | > 4.30 | > 4.30
C=CC1(O)CCc2c(sc3ncnc(Nc4ccc(F)c(Cl)c4)c23)C1 (stereo not shown) [Example 201, 4-[(3-chloro-4-fluorophenyl)amino]-7-vinyl-5,6,7,8-tetrahydro[1]benzothieno[2,3-d]pyrimidin-7-ol] | > 4.30 | > 4.30
CS(=O)(=O)CCNC(=O)CC1CCc2c(sc3ncnc(Nc4cccc(Br)c4)c23)C1 (stereo not shown) [Example 77, 2-{4-[(3-bromophenyl)amino]-5,6,7,8-tetrahydro[1]benzothieno[2,3-d]pyrimidin-7-yl}-N-[2-(methylsulfonyl)ethyl]acetamide] | > 5.30 | > 5.30
CCOC(=O)CC1CCc2c(sc3ncnc(Nc4ccc(Oc5ccc(C)nc5)c(C)c4)c23)C1 (stereo not shown) [Example 213, ethyl [4-({3-methyl-4-[(6-methylpyridin-3-yl)oxy]phenyl}amino)-5,6,7,8-tetrahydro[1]benzothieno[2,3-d]pyrimidin-7-yl]acetate] | > 4.30 | > 4.30
CC(C)(O)CC1CCc2c(sc3ncnc(Nc4cccc(Br)c4)c23)C1 (stereo not shown) [Example 95, 1-{4-[(3-bromophenyl)amino]-5,6,7,8-tetrahydro[1]benzothieno[2,3-d]pyrimidin-7-yl}-2-methyl-2-propanol] | > 5.30 | > 4.30
COCCNCCC1CCc2c(sc3ncnc(Nc4cccc(Br)c4)c23)C1 (stereo not shown) [Example 86, N-(3-bromophenyl)-7-{2-[(2-methoxyethyl)amino]ethyl}-5,6,7,8-tetrahydro[1]benzothieno[2,3-d]pyrimidin-4-amine] | > 5.30 | > 5.30
Fc1cccc(COc2ccc(Nc3ncnc4sc5c(c34)CCC(CCN3CCCCC3)C5)cc2Cl)c1 (stereo not shown) [Example 167, N-{3-chloro-4-[(3-fluorobenzyl)oxy]phenyl}-7-(2-piperidin-1-ylethyl)-5,6,7,8-tetrahydro[1]benzothieno[2,3-d]pyrimidin-4-amine] | > 5.30 | > 5.30
Fc1cccc(COc2ccc(Nc3ncnc4sc5c(c34)CCC(CCN3CCSCC3)C5)cc2Cl)c1 (stereo not shown) [Example 199, N-{3-chloro-4-[(3-fluorobenzyl)oxy]phenyl}-7-(2-thiomorpholin-4-ylethyl)-5,6,7,8-tetrahydro[1]benzothieno[2,3-d]pyrimidin-4-amine] | > 5.30 | > 4.30
Fc1ccc(COc2ccc(Nc3ncnc4sc5c(c34)CCC(CCN3CCCC3)C5)cc2Cl)cc1 (stereo not shown) [Example 153, N-{3-chloro-4-[(4-fluorobenzyl)oxy]phenyl}-7-(2-pyrrolidin-1-ylethyl)-5,6,7,8-tetrahydro[1]benzothieno[2,3-d]pyrimidin-4-amine] | > 5.30 | > 5.30
CN1CCN(CCC2CCc3c(sc4ncnc(Nc5ccc(OCc6cccc(F)c6)c(Cl)c5)c34)C2)CC1 (stereo not shown) [Example 158, N-{3-chloro-4-[(3-fluorobenzyl)oxy]phenyl}-7-[2-(4-methylpiperazin-1-yl)ethyl]-5,6,7,8-tetrahydro[1]benzothieno[2,3-d]pyrimidin-4-amine] | > 5.30 | > 5.30
O=C(O)C1CCc2c(sc3ncnc(Nc4ccc(Br)cc4F)c23)C1 (stereo not shown) [Example 2, 4-[(4-bromo-2-fluorophenyl)amino]-5,6,7,8-tetrahydro[1]benzothieno[2,3-d]pyrimidine-7-carboxylic acid] | > 5.30 | > 4.30
CS(=O)(=O)CCNCCC1CCc2c(sc3ncnc(Nc4ccc(OCc5ccccn5)c(Cl)c4)c23)C1 (stereo not shown) [Example 178, N-[3-chloro-4-(pyridin-2-ylmethoxy)phenyl]-7-(2-{[2-(methylsulfonyl)ethyl]amino}ethyl)-5,6,7,8-tetrahydro[1]benzothieno[2,3-d]pyrimidin-4-amine] | > 5.30 | > 5.30
CS(=O)(=O)CCNCCC1CCc2c(sc3ncnc(Nc4ccc(OCc5cccc(F)c5)c(Cl)c4)c23)C1 (stereo not shown) [Example 200, N-{3-chloro-4-[(3-fluorobenzyl)oxy]phenyl}-7-(2-{[2-(methylsulfonyl)ethyl]amino}ethyl)-5,6,7,8-tetrahydro[1]benzothieno[2,3-d]pyrimidin-4-amine] | > 5.30 | > 5.30
COc1ccc(N2CCN(C(=O)C3CCc4c(sc5ncnc(Nc6cccc(Br)c6)c45)C3)CC2)cc1 (stereo not shown) [Example 49, N-(3-bromophenyl)-7-{[4-(4-methoxyphenyl)-1-piperazinyl]carbonyl}-5,6,7,8-tetrahydro[1]benzothieno[2,3-d]pyrimidin-4-amine] | > 4.30 | > 4.30
Fc1ccc(Nc2ncnc3sc4c(c23)CCC(CN2CCCCC2)C4)cc1Cl (stereo not shown) [Example 4, N-(3-chloro-4-fluorophenyl)-7-(1-piperidinylmethyl)-5,6,7,8-tetrahydro[1]benzothieno[2,3-d]pyrimidin-4-amine] | > 5.30 | > 5.30
CCOC(=O)CC1CCc2c(sc3ncnc(Nc4cccc(Br)c4)c23)C1 (stereo not shown) [Example 63, ethyl {4-[(3-bromophenyl)amino]-5,6,7,8-tetrahydro[1]benzothieno[2,3-d]pyrimidin-7-yl}acetate] | > 4.30 | > 4.30

Continued, values first:

pIC50 [1] | pIC50 [2] | Compound
> 5.30 | > 5.30 | Cc1ccc(Oc2ccc(Nc3ncnc4sc5c(c34)CCC(CCNCCN(C)C)C5)cc2C)cn1 (stereo not shown) [Example 230, N,N-dimethyl-N′-{2-[4-({3-methyl-4-[(6-methylpyridin-3-yl)oxy]phenyl}amino)-5,6,7,8-tetrahydro[1]benzothieno[2,3-d]pyrimidin-7-yl]ethyl}ethane-1,2-diamine]
> 5.30 | > 4.30 | CN(C)CCC1CCc2c(sc3ncnc(Nc4ccc5c(cnn5Cc5ccccc5)c4)c23)C1 (stereo not shown) [Example 228, N-(1-benzyl-1H-indazol-5-yl)-7-[2-(dimethylamino)ethyl]-5,6,7,8-tetrahydro[1]benzothieno[2,3-d]pyrimidin-4-amine]
> 5.30 | > 5.30 | CN(C)CCC1CCc2c(sc3ncnc(Nc4ccc(OCc5ccccn5)c(Cl)c4)c23)C1 (stereo not shown) [Example 185, N-[3-chloro-4-(pyridin-2-ylmethoxy)phenyl]-7-[2-(dimethylamino)ethyl]-5,6,7,8-tetrahydro[1]benzothieno[2,3-d]pyrimidin-4-amine]
> 4.30 | > 4.30 | COc1ccc(NCCC2CCc3c(sc4ncnc(Nc5ccc(F)c(Cl)c5)c34)C2)cc1 (stereo not shown) [Example 76, N-(3-chloro-4-fluorophenyl)-7-{2-[(4-methoxyphenyl)amino]ethyl}-5,6,7,8-tetrahydro[1]benzothieno[2,3-d]pyrimidin-4-amine]
> 5.30 | > 5.30 | c1ccc(Cn2ncc3cc(Nc4ncnc5sc6c(c45)CCC(CCN4CCCC4)C6)ccc32)cc1 (stereo not shown) [Example 208, N-(1-benzyl-1H-indazol-5-yl)-7-(2-pyrrolidin-1-ylethyl)-5,6,7,8-tetrahydro[1]benzothieno[2,3-d]pyrimidin-4-amine]
> 5.30 | > 5.30 | c1ccc(Cn2ncc3cc(Nc4ncnc5sc6c(c45)CCC(CCNCCN4CCCC4)C6)ccc32)cc1 (stereo not shown) [Example 211, N-(1-benzyl-1H-indazol-5-yl)-7-{2-[(2-pyrrolidin-1-ylethyl)amino]ethyl}-5,6,7,8-tetrahydro[1]benzothieno[2,3-d]pyrimidin-4-amine]
> 5.30 | > 5.30 | Fc1cccc(COc2ccc(Nc3ncnc4sc5c(c34)CCC(CCn3ccnc3)C5)cc2Cl)c1 (stereo not shown) [Example 170, N-{3-chloro-4-[(3-fluorobenzyl)oxy]phenyl}-7-[2-(1H-imidazol-1-yl)ethyl]-5,6,7,8-tetrahydro[1]benzothieno[2,3-d]pyrimidin-4-amine]
> 5.30 | > 5.30 | OCCNCCC1CCc2c(sc3ncnc(Nc4ccc(OCc5cccc(F)c5)c(Cl)c4)c23)C1 (stereo not shown) [Example 163, 2-({2-[4-({3-chloro-4-[(3-fluorobenzyl)oxy]phenyl}amino)-5,6,7,8-tetrahydro[1]benzothieno[2,3-d]pyrimidin-7-yl]ethyl}amino)ethanol]
> 5.30 | > 5.30 | CN(C)CCCCNCCC1CCc2c(sc3ncnc(Nc4ccc5c(cnn5Cc5ccccc5)c4)c23)C1 (stereo not shown) [Example 212, N′-(2-{4-[(1-benzyl-1H-indazol-5-yl)amino]-5,6,7,8-tetrahydro[1]benzothieno[2,3-d]pyrimidin-7-yl}ethyl)-N,N-dimethylbutane-1,4-diamine]
